Test system: harmful plant species
Assay: Specific trial examples: binary compositions applied by the post-emergence method, synergistic effect according to Colby (Tables 3.1-3.2)
Type: in vivo
Description: When the observed efficacies already exceed the formal sum total of the values of the tests with individual applications, they also exceed the expected value according to Colby, which is calculated using the formula below and is likewise regarded as an indication of synergism (cf. S. R. Colby; in Weeds 15 (1967) p. 20 to 22):
Seeds or rhizome pieces of mono- and dicotyledonous weeds are placed in sandy loam in pots, covered with soil and grown in a greenhouse under good growth conditions (temperature, air humidity, water supply). Three weeks after sowing, the test plants are treated at the three-leaf stage with the compositions according to the invention. The compositions according to the invention formulated as spray powders or as emulsion concentrates are sprayed onto the green plant parts in various dosages with an application rate of 300 to 800 l/ha of water (equivalent).
The sum total of the effects of the individual applications is reported under E^A; Expected values according to Colby are each reported under E^C.
The rating period is reported in days after application (DAT).

O=C(O)CNCP(=O)(O)O [(B7.5) Glyphosate]
40%: Herbicidal action 14 DAT against Matricaria inodora (50 g a.i./ha) | Herbicidal action 28 DAT against Eleusine indica (50 g a.i./ha) | Herbicidal action 28 DAT against Pharbitis purpurea (50 g a.i./ha) | Herbicidal action 14 DAT against Lolium rigidum (resistant biotype) (450 g a.i./ha) | Herbicidal action 28 DAT against Lolium rigidum (450 g a.i./ha) | Herbicidal action 28 DAT against Polygonum convulvulus (450 g a.i./ha)
88%: Herbicidal action 14 DAT against Matricaria inodora (150 g a.i./ha)
45%: Herbicidal action 28 DAT [%] against Digitaria sanguinalis (post-emergence, single active compound (Glyphosate series), g a.i./ha: r765 50, r767 15)
50%: Herbicidal action 14 DAT against Centaurea cyanus (50 g a.i./ha) | Herbicidal action 14 DAT against Lamium purpureum L. (50 g a.i./ha) | Herbicidal action 14 DAT against Viola tricolor (50 g a.i./ha) | Herbicidal action 14 DAT against Bromus sterilis (150 g a.i./ha) | Herbicidal action 28 DAT against Ipomoea purpurea (150 g a.i./ha) | Herbicidal action 28 DAT against Lamium purpureum L. (150 g a.i./ha) | Herbicidal action 28 DAT against Galium aparine (450 g a.i./ha) | Herbicidal action 28 DAT against Lolium rigidum (sensitive biotype) (450 g a.i./ha)
0%: Herbicidal action 28 DAT against Alopecurus myosuroides (sensitive biotype) (50 g a.i./ha) | Herbicidal action 28 DAT against Bromus sterilis (50 g a.i./ha) | Herbicidal action 28 DAT against Galium aparine (50 g a.i./ha) | Herbicidal action 28 DAT against Polygonum convulvulus (50 g a.i./ha) | Herbicidal action 28 DAT against Raphanus raphanistrum (50 g a.i./ha) | Herbicidal action 28 DAT against Alopecurus myosuroides (resistant biotype) (150 g a.i./ha) | Herbicidal action 28 DAT against Lolium rigidum (sensitive biotype) (150 g a.i./ha) | Herbicidal action 28 DAT against Polygonum convolvulus (150 g a.i./ha) | Herbicidal action 28 DAT against Polygonum convolvulus (450 g a.i./ha)
20%: Herbicidal action 14 DAT against Poa annua L. (50 g a.i./ha) | Herbicidal action 28 DAT against Alopecurus myosuroides (50 g a.i./ha) | Herbicidal action 28 DAT against Echinochloa crus-galli (50 g a.i./ha) | Herbicidal action 28 DAT against Kochia scoparia (50 g a.i./ha) | Herbicidal action 28 DAT against Matricaria inodora (50 g a.i./ha) | Herbicidal action 28 DAT against Alopecurus myosuroides (sensitive biotype) (150 g a.i./ha) | Herbicidal action 28 DAT against Amaranthus palmeri (res.) (150 g a.i./ha) | Herbicidal action 28 DAT against Avena fatua (150 g a.i./ha) | Herbicidal action 28 DAT against Bromus sterilis (150 g a.i./ha) | Herbicidal action 28 DAT against Viola tricolor (150 g a.i./ha)
30%: Herbicidal action 14 DAT against Alopecurus myosuroides (50 g a.i./ha) | Herbicidal action 28 DAT against Centaurea cyanus (50 g a.i./ha) | Herbicidal action 28 DAT against Lamium purpureum L. (50 g a.i./ha) | Herbicidal action 28 DAT against Sorghum halepense (50 g a.i./ha) | Herbicidal action 14 DAT against Lolium rigidum (resistant biotype) (150 g a.i./ha) | Herbicidal action 28 DAT against Alopecurus myosuroides (150 g a.i./ha) | Herbicidal action 28 DAT against Raphanus raphanistrum (450 g a.i./ha) | Herbicidal action 28 DAT [%] against Sorghum halepense (post-emergence, single active compound (Glyphosate series), g a.i./ha: r775 50, r777 15, r778 1.67)
65%: Herbicidal action 28 DAT against Digitaria sanguinalis (50 g a.i./ha) | Herbicidal action 28 DAT against Ipomoea purpurea (450 g a.i./ha)
95%: Herbicidal action 28 DAT [%] against Setaria viridis (post-emergence, single active compound (Glyphosate series), g a.i./ha: r786 450, r788 1.67)
75%: Herbicidal action 28 DAT against Matricaria inodora (150 g a.i./ha)
35%: Herbicidal action 28 DAT against Euphorbia heterophylla (150 g a.i./ha) | Herbicidal action 28 DAT against Amaranthus palmeri (res.) (450 g a.i./ha)
80%: Herbicidal action 28 DAT against Brachiaria platyphylla (50 g a.i./ha) | Herbicidal action 28 DAT against Eleusine indica (150 g a.i./ha) | Herbicidal action 28 DAT against Lamium purpureum (450 g a.i./ha) | Herbicidal action 28 DAT against Lamium purpureum L. (450 g a.i./ha) | Herbicidal action 28 DAT against Matricaria inodora (450 g a.i./ha)
70%: Herbicidal action 28 DAT against Centaurea cyanus (150 g a.i./ha) | Herbicidal action 28 DAT against Euphorbia heterophylla (450 g a.i./ha)
85%: Herbicidal action 28 DAT against Veronica hederifolia (150 g a.i./ha) | Herbicidal action 28 DAT against Stellaria media (450 g a.i./ha) | Herbicidal action 28 DAT against Veronica hederifolia (450 g a.i./ha) | Herbicidal action 28 DAT [%] against Abutilon theophrasti (post-emergence, single active compound (Glyphosate series), g a.i./ha: r796 450, r798 5)
60%: Herbicidal action 14 DAT against Alopecurus myosuroides (150 g a.i./ha) | Herbicidal action 14 DAT against Lamium purpureum L. (150 g a.i./ha) | Herbicidal action 28 DAT against Lamium purpureum (150 g a.i./ha) | Herbicidal action 14 DAT against Viola tricolor (450 g a.i./ha) | Herbicidal action 28 DAT against Bromus sterilis (450 g a.i./ha) | Herbicidal action 28 DAT against Phalaris minor (450 g a.i./ha)
15%: Herbicidal action 28 DAT against Ipomoea purpurea (50 g a.i./ha)
10%: Herbicidal action 28 DAT against Digitaria sanguinalis (15 g a.i./ha) | Herbicidal action 14 DAT against Lolium rigidum (50 g a.i./ha) | Herbicidal action 14 DAT against Lolium rigidum (resistant biotype) (50 g a.i./ha) | Herbicidal action 28 DAT against Amaranthus palmeri (res.) (50 g a.i./ha) | Herbicidal action 28 DAT against Euphorbia heterophylla (50 g a.i./ha) | Herbicidal action 28 DAT against Hordeum murinum (50 g a.i./ha) | Herbicidal action 28 DAT against Polygonum convulvulus (150 g a.i./ha)

C=C[C@]1(C(=O)N[C@@H]2C=C(C(=O)NS(C)(=O)=O)OC2)CC(c2cc(F)cc(F)c2)=NO1 [Compound A4, (5S)-3-(3,5-difluorophenyl)-N-[(3R)-5-(methylsulfonylcarbamoyl)-2,3-dihydrofuran-3-yl]-5-vinyl-4H-isoxazole-5-carboxamide]
0%: Herbicidal action 28 DAT against Alopecurus myosuroides (1 g a.i./ha) | Herbicidal action 28 DAT against Viola tricolor (1 g a.i./ha) | Herbicidal action 28 DAT against Lolium rigidum (resistant biotype) (4 g a.i./ha) | Herbicidal action 28 DAT against Viola tricolor (4 g a.i./ha) | Herbicidal action against Viola tricolor ((Z90) 28 DAT, g a.i./ha: r624 4, r625 270) | Herbicidal action in [%] 28 DAT against Lolium rigidum (resistant bio type) (post-emergence, single active compound (A4 series), g a.i./ha: r523 1, r524 450)
40%: Herbicidal action 14 DAT against Matricaria inodora (1 g a.i./ha) | Herbicidal action 14 DAT against Centaurea cyanus (16 g a.i./ha) | Herbicidal action 14 DAT against Poa annua L. (16 g a.i./ha) | Herbicidal action in [%] 14 DAT against Poa annua L. (post-emergence, single active compound (A4 series), g a.i./ha: r533 16, r534 450)
20%: Herbicidal action 14 DAT against Bromus sterilis (1 g a.i./ha) | Herbicidal action 14 DAT against Poa annua L. (1 g a.i./ha) | Herbicidal action 28 DAT against Lamium purpureum L. (1 g a.i./ha) | Herbicidal action 28 DAT against Galium aparine (16 g a.i./ha) | Herbicidal action against Galium aparine ((Z90) 28 DAT, g a.i./ha: r575 16, r576 270, r577 90, r578 30) | Herbicidal action in [%] 28 DAT against Galium aparine (post-emergence, single active compound (A4 series), g a.i./ha: r491 16, r492 50) | Herbicidal action in [%] 28 DAT against Lamium purpureum L. (post-emergence, single active compound (A4 series), g a.i./ha: r512 4, r513 1, r514 450)
30%: Herbicidal action 14 DAT against Viola tricolor (1 g a.i./ha) | Herbicidal action 14 DAT against Centaurea cyanus (4 g a.i./ha) | Herbicidal action 14 DAT against Lamium purpureum L. (4 g a.i./ha) | Herbicidal action 14 DAT against Matricaria inodora (4 g a.i./ha) | Herbicidal action 14 DAT against Viola tricolor (4 g a.i./ha) | Herbicidal action 28 DAT against Bromus sterilis (4 g a.i./ha) | Herbicidal action 14 DAT against Alopecurus myosuroides (16 g a.i./ha) | Herbicidal action against Lamium purpureum L. ((Z90) 28 DAT, g a.i./ha: r586 16, r587 30) | Herbicidal action in [%] 14 DAT against Lamium purpureum L. (post-emergence, single active compound (A4 series), g a.i./ha: r501 4, r502 1, r503 450)
10%: Herbicidal action 14 DAT against Alopecurus myosuroides (1 g a.i./ha) | Herbicidal action 14 DAT against Lolium rigidum (resistant biotype) (1 g a.i./ha) | Herbicidal action 28 DAT against Bromus sterilis (1 g a.i./ha) | Herbicidal action 28 DAT against Matricaria inodora (1 g a.i./ha) | Herbicidal action 14 DAT against Lolium rigidum (resistant biotype) (4 g a.i./ha) | Herbicidal action 28 DAT against Lolium rigidum (4 g a.i./ha) | Herbicidal action 28 DAT against Matricaria inodora (4 g a.i./ha) | Herbicidal action 28 DAT against Phalaris minor (4 g a.i./ha) | Herbicidal action against Lolium rigidum ((Z90) 28 DAT, g a.i./ha: r594 16, r595 30) | Herbicidal action against Matricaria inodora ((Z90) 28 DAT, g a.i./ha: r602 4, r603 90)

From US20220053762A1, “HERBICIDAL COMPOSITIONS” (Bayer Aktiengesellschaft, priority 2018, published 2022)
